# Source: ChEMBL document CHEMBL5233223, “Dammarane-type leads panaxadiol and protopanaxadiol for drug discovery: Biological activity and structural modification” (Eur J Med Chem, 2020)
# What was measured:
# [1] = system: Hepatitis B virus; experiment: Antiviral activity against Hepatitis B virus infected in human HepG2.2.15 cells assessed as inhibition of viral DNA replication by MTT assay; format: functional, organism-based; settings: HepG2 2.2.15
# [2] = system: Hepatitis B virus; experiment: Antiviral activity against Hepatitis B virus infected in human HepG2.2.15 cells assessed as inhibition of HBsAg level by MTT assay; format: functional, organism-based; settings: HepG2 2.2.15
# [3] = system: HepG2 2.2.15; experiment: Antiproliferative activity against human HepG2.2.15 cells assessed as cell growth inhibition; format: functional, cell-based
# [4] = system: Hepatitis B virus; experiment: Antiviral activity against Hepatitis B virus infected in human HepG2.2.15 cells assessed as inhibition of HBeAg level by MTT assay; format: functional, organism-based; settings: HepG2 2.2.15
# [5] = system: MCF7; experiment: Antiproliferative activity against human MCF7 cells assessed as cell growth inhibition; format: functional, cell-based
# [6] = system: PC-3; experiment: Antiproliferative activity against human PC-3 cells assessed as cell growth inhibition; format: functional, cell-based
# [7] = system: HeLa; experiment: Antiproliferative activity against human HeLa cells assessed as cell growth inhibition measured after 24 hrs by [3H]thymidine incorporation assay; format: functional, cell-based
# [8] = system: HCT-116; experiment: Induction of apoptosis in human HCT-116 cells at 20 uM in presence of epicatechin at 250 uM relative to control; format: functional
# [9] = system: HCT-116; experiment: Antiproliferative activity against human HCT-116 cells assessed as cell growth inhibition at 20 uM relative to control; format: functional; set-up: scale not given: the % may be the effect or the level left
# [10] = system: SK-HEP1; experiment: Antiproliferative activity against human SK-HEP1 cells assessed as cell growth inhibition measured after 24 hrs by [3H]thymidine incorporation assay; format: functional, cell-based
# [11] = system: HCT-116; experiment: Antiproliferative activity against human HCT-116 cells assessed as cell growth inhibition at 20 uM in presence of epicatechin at 200 uM relative to control; format: functional; set-up: scale not given: the % may be the effect or the level left
# [12] = system: HCT-116; experiment: Induction of apoptosis in human HCT-116 cells at 20 uM in presence of epicatechin at 150 uM relative to control; format: functional
# [13] = system: HCT-116; experiment: Antiproliferative activity against human HCT-116 cells assessed as cell growth inhibition at 20 uM in presence of epicatechin at 150 uM relative to control; format: functional; set-up: scale not given: the % may be the effect or the level left
# [14] = system: Mus musculus; experiment: In vivo radioprotective activity in gamma-irradiated ICR mouse assessed as inhibition of radiation-induced apoptosis frequency relative to control; format: functional; set-up: scale not given: the % may be the effect or the level left
# [15] = system: HCT-116; experiment: Induction of apoptosis in human HCT-116 cells at 20 uM at 20 uM relative to control; format: functional
# [16] = system: HCT-116; experiment: Induction of apoptosis in human HCT-116 cells at 20 uM in presence of epicatechin at 200 uM relative to control; format: functional
# [17] = system: HCT-116; experiment: Antiproliferative activity against human HCT-116 cells assessed as cell growth inhibition at 20 uM in presence of epicatechin at 250 uM relative to control; format: functional; set-up: scale not given: the % may be the effect or the level left
# [18] = system: HeLa; experiment: Antiproliferative activity against human HeLa cells assessed as cell growth inhibition; format: functional, cell-based
# [19] = target: 11-beta-hydroxysteroid dehydrogenase 1 (Homo sapiens, UniProt P28845); experiment: Inhibition of human 11beta-HSD1
# Chain of 11-beta-hydroxysteroid dehydrogenase 1 (Homo sapiens, UniProt P28845) (P28845 whole entry): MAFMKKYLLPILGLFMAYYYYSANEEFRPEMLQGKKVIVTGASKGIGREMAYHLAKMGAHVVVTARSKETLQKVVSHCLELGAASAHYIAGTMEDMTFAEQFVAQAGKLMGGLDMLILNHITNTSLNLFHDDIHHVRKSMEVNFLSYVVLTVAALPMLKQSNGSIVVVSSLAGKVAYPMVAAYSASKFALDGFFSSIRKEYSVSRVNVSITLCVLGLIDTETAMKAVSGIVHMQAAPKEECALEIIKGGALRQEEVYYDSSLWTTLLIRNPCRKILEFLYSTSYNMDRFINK
# [20] = target: 11-beta-hydroxysteroid dehydrogenase 1 (Mus musculus, UniProt P50172); experiment: Inhibition of mouse 11beta-HSD1
# Chain of 11-beta-hydroxysteroid dehydrogenase 1 (Mus musculus, UniProt P50172) (P50172 whole entry): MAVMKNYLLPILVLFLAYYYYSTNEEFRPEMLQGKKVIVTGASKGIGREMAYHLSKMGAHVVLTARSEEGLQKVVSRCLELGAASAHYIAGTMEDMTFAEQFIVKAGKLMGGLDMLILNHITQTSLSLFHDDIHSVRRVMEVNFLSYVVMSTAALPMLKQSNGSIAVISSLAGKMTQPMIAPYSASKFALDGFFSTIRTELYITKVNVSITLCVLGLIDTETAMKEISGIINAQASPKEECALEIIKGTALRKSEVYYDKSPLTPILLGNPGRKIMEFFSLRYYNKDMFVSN
# [21] = system: Staphylococcus aureus; experiment: Antimicrobial activity against Staphylococcus aureus USA300 assessed as bacterial growth inhibition; format: functional
# [22] = system: Bacillus subtilis; experiment: Antimicrobial activity against Bacillus subtilis assessed as bacterial growth inhibition; format: functional
# [23] = target: Stromelysin-1 (Homo sapiens) (UniProt P08254); experiment: Inhibition of MMP-3 (unknown origin) at 10 uM
# Chain of Stromelysin-1 (Homo sapiens) (P08254 100-477 limits assumed): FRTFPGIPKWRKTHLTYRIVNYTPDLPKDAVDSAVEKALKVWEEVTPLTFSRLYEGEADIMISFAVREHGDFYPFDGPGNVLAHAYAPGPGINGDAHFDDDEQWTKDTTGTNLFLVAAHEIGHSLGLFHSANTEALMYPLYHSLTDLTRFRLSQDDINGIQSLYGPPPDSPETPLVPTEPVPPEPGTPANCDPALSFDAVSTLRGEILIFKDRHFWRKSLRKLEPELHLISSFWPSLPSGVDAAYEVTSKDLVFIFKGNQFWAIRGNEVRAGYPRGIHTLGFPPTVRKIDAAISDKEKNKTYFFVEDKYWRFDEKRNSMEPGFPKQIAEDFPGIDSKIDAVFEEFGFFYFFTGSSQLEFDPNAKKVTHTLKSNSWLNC
# [24] = system: HCT-116; experiment: Antiproliferative activity against human HCT-116 cells assessed as cell growth inhibition by crystal violet staining based assay relative to control; format: functional; set-up: scale not given: the % may be the effect or the level left
# [25] = system: LNCaP; experiment: Antiproliferative activity against human LNCAP cells assessed as cell growth inhibition in presence of calcitriol; format: functional, cell-based
# [26] = system: RS4-11; experiment: Antiproliferative activity against human RS4-11 cells assessed as cell growth inhibition; format: functional, cell-based
# [27] = system: LNCaP C4-2; experiment: Antiproliferative activity against human LNCaP C4-2 cells assessed as cell growth inhibition in presence of calcitriol; format: functional, cell-based
# [28] = target: Estrogen receptor (Homo sapiens, UniProt P03372); experiment: Displacement of [3H]-17beta-estradiol to estrogen receptor (unknown origin)
# Chain of Estrogen receptor (P03372 whole entry): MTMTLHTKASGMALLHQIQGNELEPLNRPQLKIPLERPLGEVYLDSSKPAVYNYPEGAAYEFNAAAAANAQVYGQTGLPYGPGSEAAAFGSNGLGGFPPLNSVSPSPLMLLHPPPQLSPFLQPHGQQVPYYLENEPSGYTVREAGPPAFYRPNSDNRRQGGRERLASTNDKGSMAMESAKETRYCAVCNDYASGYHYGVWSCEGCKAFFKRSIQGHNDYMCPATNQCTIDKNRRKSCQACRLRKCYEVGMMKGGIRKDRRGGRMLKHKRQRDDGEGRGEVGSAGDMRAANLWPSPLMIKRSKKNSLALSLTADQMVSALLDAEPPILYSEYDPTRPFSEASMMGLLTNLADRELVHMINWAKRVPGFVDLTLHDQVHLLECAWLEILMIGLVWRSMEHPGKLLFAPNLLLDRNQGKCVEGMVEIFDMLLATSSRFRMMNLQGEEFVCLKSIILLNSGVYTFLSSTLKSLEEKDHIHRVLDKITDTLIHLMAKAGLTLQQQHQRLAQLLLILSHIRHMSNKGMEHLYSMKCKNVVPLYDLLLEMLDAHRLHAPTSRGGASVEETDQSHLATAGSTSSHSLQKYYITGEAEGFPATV
# [29] = system: SW480; experiment: Antiproliferative activity against human SW480 cells assessed as cell growth inhibition by crystal violet staining based assay; format: functional
# [30] = Cytotoxicity against human PBMC assessed as cell growth inhibition; format: toxicity, cell-based; settings: PBMC (peripheral blood mononuclear cells)
# [31] = system: HCT-116; experiment: Antiproliferative activity against human HCT-116 cells assessed as cell growth inhibition by crystal violet staining based assay; format: functional
# [32] = system: HT-1080; experiment: Antiproliferative activity against human HT-1080 cells assessed as inhibition of cell proliferation; format: functional, cell-based
# [33] = system: LNCaP; experiment: Antiproliferative activity against human LNCAP cells assessed as cell growth inhibition; format: functional, cell-based
# [34] = Antiproliferative activity against human U-87 MG cells assessed as inhibition of cell proliferation; format: functional, cell-based, U-87MG ATCC
# [35] = Antiproliferative activity against human Ectopic endometrial stromal cell assessed as cell growth inhibition; format: functional, cell-based
# [36] = system: SF-188; experiment: Antiproliferative activity against human SF-188 cells assessed as inhibition of cell proliferation; format: functional, cell-based
# [37] = target: Stromelysin-1 (Homo sapiens) (UniProt P08254); experiment: Inhibition of MMP-3 (unknown origin) at 5 uM
# [38] = system: REH; experiment: Antiproliferative activity against human REH cells assessed as cell growth inhibition; format: functional, cell-based
# [39] = system: LNCaP C4-2; experiment: Antiproliferative activity against human LNCaP C4-2 cells assessed as cell growth inhibition; format: functional, cell-based
# [40] = system: RL95-2; experiment: Induction of autophagy in human RL95-2 cells assessed as ratio of LC3bII/LC3bI levels; format: functional
# [41] = system: Ishikawa; experiment: Induction of autophagy in human Ishikawa cells assessed as ratio of LC3bII/LC3bI levels; format: functional
# [42] = system: HCT-116; experiment: Antiproliferative activity against human HCT-116 cells assessed as cell growth inhibition at 200 uM relative to control; format: functional; set-up: scale not given: the % may be the effect or the level left
# [43] = system: HCT-116; experiment: Induction of apoptosis in human HCT-116 cells at 250 uM relative to control; format: functional
compound,measurement,setting,value
CC1(C)CCC[C@](C)(C2CC[C@]3(C)C2[C@H](O)CC2[C@@]4(C)CC[C@H](OC(=O)c5cccs5)C(C)(C)C4CC[C@]23C)O1 (some centres undefined),IC50,[1],16.5 µM
same,IC50,[2],30.8 µM
same,IC50,[3],7.27 µM
same,IC50,[4],18.2 µM
CC(=O)Oc1ccccc1C(=O)O[C@H]1CC[C@@]2(C)C(CC[C@]3(C)C2C[C@@H](O)C2C([C@@]4(C)CCCC(C)(C)O4)CC[C@]23C)C1(C)C (some centres undefined),IC50,[5],2.56 µM
CC1(C)CCC[C@](C)(C2CC[C@]3(C)C2[C@H](O)CC2[C@@]4(C)CC[C@H](OC(=O)c5c(Cl)c(Cl)c(Cl)c(Cl)c5C(=O)O)C(C)(C)C4CC[C@]23C)O1 (some centres undefined),IC50,[5],8.62 µM
COc1ccc(/C=C2/C[C@@]3(C)C(CC[C@]4(C)C3C[C@@H](O)C3C([C@@]5(C)CCCC(C)(C)O5)CC[C@]34C)C(C)(C)C2=O)cc1 (some centres undefined),IC50,[6],39.4 µM
CC1(C)CCC[C@](C)(C2CC[C@]3(C)C2[C@H](O)CC2[C@@]4(C)CC[C@H](O)C(C)(C)C4CC[C@]23C)O1 (some centres undefined),IC50,[7],1.2 µM
same,Activity,[8],25.8%
same,Activity,[9],28.7%
same,IC50,[10],0.8 µM
same,Activity,[11],97.2%
same,Activity,[12],11.9%
same,Activity,[13],50.7%
same,Activity,[14],29.5%
same,Activity,[15],7.2%
same,Activity,[16],16.6%
same,Activity,[17],94.7%
CC(C)(O)[C@H]1CC[C@@](C)([C@H]2CC[C@]3(C)C2[C@H](O)CC2[C@@]4(C)CC[C@H](O)C(C)(C)C4CC[C@]23C)O1 (some centres undefined),IC50,[18],4.58 µM
CO[C@@H]1CC(=O)[C@]2(C)C1[C@H](OC(C)=O)CC1[C@@]3(C)CC[C@H](O)C(C)(C)C3CC[C@]12C (some centres undefined),IC50,[19],0.015 µM
same,IC50,[20],3.3 µM
CC(C)(O)[C@H]1CC[C@@](C)([C@H]2CC[C@]3(C)C2[C@H](O)CC2[C@@]4(C)CC[C@H](OC(=O)C5CCNCC5)C(C)(C)C4CC[C@]23C)O1 (some centres undefined),MIC,[21],8 µg/mL
same,MIC,[22],2 µg/mL
CC(C)=CCC[C@](C)(O)C1CC[C@]2(C)C1[C@H](O)CC1[C@@]3(C)CC[C@H](O)C(C)(C)C3CC[C@]12C (some centres undefined),inhibition,[23],68.6%
same,Activity,[24],<30%
same,IC50,[25],53 µM
same,IC50,[26],27.2 µM
same,IC50,[27],23 µM
same,IC50,[28],26.3 µM
same,IC50,[29],8.99 µM
same,IC50,[30],116 µM
same,IC50,[31],4.69 µM
same,IC50,[32],76.8 µM
same,IC50,[33],41 µM
same,IC50,[34],38 µM
same,IC50,[35],30.6 µM
same,IC50,[36],24 µM
same,inhibition,[37],40.3%
same,IC50,[38],24.4 µM
same,IC50,[39],13 µM
same,Ratio,[40],1.93
same,Ratio,[41],0.91
CC1(C)CCC[C@](C)(C2CC[C@]3(C)C2[C@H](O)CC2[C@@]4(C)C/C(=C/c5ccc(C(F)(F)F)cc5)C(=O)C(C)(C)C4CC[C@]23C)O1 (some centres undefined),IC50,[33],< 38.9 µM
same,IC50,[6],35.4 µM
Oc1cc(O)c2c(c1)O[C@H](c1ccc(O)c(O)c1)[C@H](O)C2 [(-)-EPICATECHIN],Activity,[42],17%
same,Activity,[43],9.4%
CC(C)(O)[C@@H]1CC[C@@](C)([C@H]2CC[C@]3(C)C2[C@H](O)CC2[C@@]4(C)CC[C@H](O)C(C)(C)C4CC[C@]23C)O1 (some centres undefined),IC50,[18],17.7 µM
CC1(C)CCC[C@](C)(C2CC[C@]3(C)C2[C@H](O)CC2[C@@]4(C)C/C(=C/c5ccc(O)cc5)C(=O)C(C)(C)C4CC[C@]23C)O1 (some centres undefined),IC50,[33],< 38.9 µM
same,IC50,[6],11.7 µM
